pKi: −log10 of the molar value.
Key:
CDK2 = molecular target: T1, CDK2 (Homo sapiens, UniProt P24941); assay: NanoBiT assay (CDK2 degradation); format: cell-based; settings: 24 hours; for Dmax: HEK293, HEK293 clonal line with CRISPR KI HiBiT tag on CDK2, Endurazine live cell substrate
T1 construct: HEK293 clonal lines with CRISPR KI HiBiT tag on CDK2 proteins; host or cells: HEK293 clonal line, CRISPR knock-in HiBiT-CDK2, stably expressing LgBiT
How it was run: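 HEK293 cells with endogenous HiBiT-tagged CDK2 knock-in and stable LgBiT, with Endurazine live-cell substrate; cells were dosed with compound (30 μM stock) for 24 h at 37 °C, then luminescence was read. Response normalised to plate negative/positive controls and fitted to a 3-parameter logistic (hillslope=1) for EC50.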

CRBN-DDB1 = CRBN-DDB1 (Homo sapiens, UniProt Q96SW2); assay: Compound binding to CRBN by HTRF assay; settings: CRBN-DDB1 2.5 nM, Cy5-Thalidomide 100 nM, 30 min; Ki from geometric mean IC50 by Cheng-Prustoff transformation
Sequence of CRBN-DDB1 (Q96SW2 whole entry): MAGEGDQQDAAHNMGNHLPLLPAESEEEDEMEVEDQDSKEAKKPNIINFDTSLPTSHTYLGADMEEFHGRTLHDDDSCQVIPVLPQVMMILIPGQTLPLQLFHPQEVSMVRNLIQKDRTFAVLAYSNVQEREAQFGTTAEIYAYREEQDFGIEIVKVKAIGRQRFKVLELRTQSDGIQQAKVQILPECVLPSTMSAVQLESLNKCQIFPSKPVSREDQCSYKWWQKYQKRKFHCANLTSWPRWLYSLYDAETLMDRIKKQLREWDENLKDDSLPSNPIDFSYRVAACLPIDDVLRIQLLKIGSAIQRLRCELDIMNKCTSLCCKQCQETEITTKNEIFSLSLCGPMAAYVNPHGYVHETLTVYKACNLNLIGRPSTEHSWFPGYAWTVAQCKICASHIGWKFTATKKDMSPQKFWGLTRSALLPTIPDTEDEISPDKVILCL
Sequence of CRBN-DDB1 (Q16531 whole entry partner): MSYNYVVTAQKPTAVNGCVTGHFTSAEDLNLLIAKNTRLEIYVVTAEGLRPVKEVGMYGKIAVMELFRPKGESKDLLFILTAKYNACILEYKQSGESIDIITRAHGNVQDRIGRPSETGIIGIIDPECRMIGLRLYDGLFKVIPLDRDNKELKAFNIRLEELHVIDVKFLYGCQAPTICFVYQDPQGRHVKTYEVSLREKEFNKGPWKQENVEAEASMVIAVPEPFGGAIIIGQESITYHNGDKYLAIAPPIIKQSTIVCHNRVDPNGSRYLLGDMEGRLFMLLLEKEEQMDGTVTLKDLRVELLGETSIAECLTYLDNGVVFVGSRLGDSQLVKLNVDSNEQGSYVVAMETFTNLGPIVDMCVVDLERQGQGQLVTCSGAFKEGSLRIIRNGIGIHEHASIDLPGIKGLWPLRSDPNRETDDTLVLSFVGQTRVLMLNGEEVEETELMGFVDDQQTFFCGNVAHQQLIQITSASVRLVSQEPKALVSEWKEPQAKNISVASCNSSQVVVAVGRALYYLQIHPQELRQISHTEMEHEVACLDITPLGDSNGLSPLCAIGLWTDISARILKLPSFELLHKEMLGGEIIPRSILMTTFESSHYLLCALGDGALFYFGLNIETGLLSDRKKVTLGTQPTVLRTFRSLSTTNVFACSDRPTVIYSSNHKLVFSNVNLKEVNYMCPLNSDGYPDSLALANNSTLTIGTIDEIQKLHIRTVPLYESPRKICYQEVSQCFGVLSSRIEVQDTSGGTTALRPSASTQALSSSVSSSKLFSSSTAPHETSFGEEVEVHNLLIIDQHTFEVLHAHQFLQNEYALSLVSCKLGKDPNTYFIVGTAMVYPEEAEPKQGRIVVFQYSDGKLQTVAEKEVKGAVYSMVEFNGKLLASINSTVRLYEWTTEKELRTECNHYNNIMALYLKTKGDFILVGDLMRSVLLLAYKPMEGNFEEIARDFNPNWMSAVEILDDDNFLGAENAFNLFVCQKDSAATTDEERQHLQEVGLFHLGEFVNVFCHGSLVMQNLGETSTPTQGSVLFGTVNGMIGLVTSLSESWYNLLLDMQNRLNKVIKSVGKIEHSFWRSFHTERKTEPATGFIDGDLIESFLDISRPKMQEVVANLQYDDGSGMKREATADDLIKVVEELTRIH
How it was run: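 HTRF displacement of Cy5-thalidomide probe (100 nM) from His-CRBN-DDB1 (2.5 nM) with anti-His terbium cryptate, in HEPES/NaCl/TCEP/EDTA/Tween20 buffer. 10-point 1:3 compound series, 30 min at ambient temperature; signal normalised to DMSO and lenalidomide controls, IC50 fitted and Ki derived by Cheng-Prusoff.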

Compound | Dmax (CDK2) [%] | pKi (CRBN-DDB1) | CDK2 NanoBiT Dmax (%) (CDK2; HEK293 clonal line with CRISPR KI HiBiT tag on CDK2, Endurazine live cell substrate)
O=C1CCC(N2Cc3c(Cl)cc(CNc4nnc(C5CC6(CCC6)C5)o4)cc3C2=O)C(=O)N1 (centres unmarked) [Compound 140, 3-(4-chloro-1-oxo-6-(((5-(spiro[3.3]heptan-2-yl)-1,3,4-oxadiazol-2-yl)amino)methyl)isoindolin-2-yl)piperidine-2,6-dione] | 50 to 80 | 6.00 to 7.00 | –
O=C1CCC(N2Cc3c(cc(CNc4nnc(C5CC6(CCC6)C5)o4)cc3C(F)(F)F)C2=O)C(=O)N1 (centres unmarked) [Compound 139, 3-(1-oxo-6-(((5-(spiro[3.3]heptan-2-yl)-1,3,4-oxadiazol-2-yl)amino)methyl)-4-(trifluoromethyl)isoindolin-2-yl)piperidine-2,6-dione] | – | 6.00 to 7.00 | C (C represents a Dmax value of >50% and ≤80%)
CC1(C)COC1COC(=O)NCc1ccc2c(c1)C(=O)N(C1CCC(=O)NC1=O)C2 (centres unmarked) [Compound 79, (3,3-dimethyloxetan-2-yl)methyl N-{[2-(2,6-dioxopiperidin-3-yl)-3-oxo-2,3-dihydro-1H-isoindol-5-yl]methyl}carbamate] | ≤ 10 | 6.00 to 7.00 | –
CC(C)[C@@H]1C[C@H]1COC(=O)NCc1ccc2c(c1)C(=O)N(C1CCC(=O)NC1=O)C2 (stereo partly drawn) [Compound 116, ((1R,2S)-2-isopropylcyclopropyl)methyl ((2-(2,6-dioxopiperidin-3-yl)-3-oxoisoindolin-5-yl)methyl)carbamate] | 10 to 50 | 6.00 to 7.00 | –
O=C1CCC(N2Cc3ccc(CNC(=O)OC(CC4CC4)C4CC5(CCC5)C4)cc3C2=O)C(=O)N1 (centres unmarked) [Compound 110, 2-cyclopropyl-1-(spiro[3.3]heptan-2-yl)ethyl ((2-(2,6-dioxopiperidin-3-yl)-3-oxoisoindolin-5-yl)methyl)carbamate] | 10 to 50 | 6.00 to 7.00 | –
O=C1CCC(N2Cc3c(F)cc(CNc4nnc(C5CC6(CCC6)C5)o4)cc3C2=O)C(=O)N1 (centres unmarked) [Compound 142, 3-(4-fluoro-1-oxo-6-(((5-(spiro[3.3]heptan-2-yl)-1,3,4-oxadiazol-2-yl)amino)methyl)isoindolin-2-yl)piperidine-2,6-dione] | 50 to 80 | 6.00 to 7.00 | –
O=C1CCC(N2Cc3c(F)cc(CNC(=O)OCC4CC5(CCC5)C4)cc3C2=O)C(=O)N1 (centres unmarked) [Compound 122, spiro[3.3]heptan-2-ylmethyl ((2-(2,6-dioxopiperidin-3-yl)-7-fluoro-3-oxoisoindolin-5-yl)methyl)carbamate] | 50 to 80 | 6.00 to 7.00 | –
CC(NC(=O)OCC1CC2(CCC2)C1)c1ccc2c(c1)C(=O)N(C1CCC(=O)NC1=O)C2 (centres unmarked) [Compound 114] | 10 to 50 | 6.00 to 7.00 | –
O=C1CCC(N2Cc3ccc(CNC(=O)OC4CCC5(CCC5)CC4)cc3C2=O)C(=O)N1 (centres unmarked) [Compound 133, spiro[3.5]nonan-7-yl ((2-(2,6-dioxopiperidin-3-yl)-3-oxoisoindolin-5-yl)methyl)carbamate] | 10 to 50 | 6.00 to 7.00 | –
CC1(COC(=O)NCc2ccc3c(c2)C(=O)N(C2CCC(=O)NC2=O)C3)CCOCC1 (centres unmarked) [Compound 83, (4-methyloxan-4-yl)methyl N-{[2-(2,6-dioxopiperidin-3-yl)-3-oxo-2,3-dihydro-1H-isoindol-5-yl]methyl}carbamate] | ≤ 10 | 6.00 to 7.00 | –
CC12COC(COC(=O)NCc3ccc4c(c3)C(=O)N(C3CCC(=O)NC3=O)C4)(C1)C2 (centres unmarked) [Compound 72, {4-methyl-2-oxabicyclo[2.1.1]hexan-1-yl}methyl N-{[2-(2,6-dioxopiperidin-3-yl)-3-oxo-2,3-dihydro-1H-isoindol-5-yl]methyl}carbamate] | ≤ 10 | 6.00 to 7.00 | –
O=C1CCC(N2Cc3cc(F)c(CNC(=O)OCC4CC5(CCC5)C4)cc3C2=O)C(=O)N1 (centres unmarked) [Compound 123, spiro[3.3]heptan-2-ylmethyl ((2-(2,6-dioxopiperidin-3-yl)-6-fluoro-3-oxoisoindolin-5-yl)methyl)carbamate] | 10 to 50 | 6.00 to 7.00 | –
O=C1CCC(N2Cc3ccc(CNC(=O)OCCC4CC5(CCC5)C4)cc3C2=O)C(=O)N1 (centres unmarked) [Compound 124, 2-(spiro[3.3]heptan-2-yl)ethyl ((2-(2,6-dioxopiperidin-3-yl)-3-oxoisoindolin-5-yl)methyl)carbamate] | 10 to 50 | 6.00 to 7.00 | –
CC(C)(C)C12CC(COC(=O)NCc3ccc4c(c3)C(=O)N(C3CCC(=O)NC3=O)C4)(C1)C2 (centres unmarked) [Compound 131, (3-(tert-butyl)bicyclo[1.1.1]pentan-1-yl)methyl((2-(2,6-dioxopiperidin-3-yl)-3-oxoisoindolin-5-yl)methyl)carbamate] | 10 to 50 | 6.00 to 7.00 | –

Now from value to molecule, other results behind:

Dmax (CDK2) [%] | pKi (CRBN-DDB1) | Compound | CDK2 NanoBiT Dmax (%) (CDK2; HEK293 clonal line with CRISPR KI HiBiT tag on CDK2, Endurazine live cell substrate)
50 to 80 | ≥ 7.00 | O=C1CCC(N2Cc3ccc(CNC(=O)OCC4CC5(C4)CC4(CCC4)C5)cc3C2=O)C(=O)N1 (centres unmarked) [Compound 127, dispiro[3.1.36.14]decan-2-ylmethyl((2-(2,6-dioxopiperidin-3-yl)-3-oxoisoindolin-5-yl)methyl)carbamate] | –
≤ 10 | 6.00 to 7.00 | O=C1CCC(N2Cc3ccc(CNC(=O)OCC4CCC[C@H]4C(F)(F)F)cc3C2=O)C(=O)N1 (mixture of isomers) [Compound 73, rac-[(1R,2R)-2-(trifluoromethyl)cyclopentyl]methyl N-{[2-(2,6-dioxopiperidin-3-yl)-3-oxo-2,3-dihydro-1H-isoindol-5-yl]methyl}carbamate] | –
10 to 50 | 6.00 to 7.00 | O=C1CCC(N2Cc3ccc(CNC(=O)OC[C@@H]4C[C@H]4c4ccccc4)cc3C2=O)C(=O)N1 (stereo partly drawn) [Compound 132, ((1R,2R)-2-phenylcyclopropyl)methyl ((2-(2,6-dioxopiperidin-3-yl)-3-oxoisoindolin-5-yl)methyl)carbamate] | –
10 to 50 | ≥ 7.00 | O=C1CCC(N2Cc3c(cc(CNc4nnc(C5CC6(CCC6)C5)o4)cc3C(F)F)C2=O)C(=O)N1 (centres unmarked) [Compound 143, 3-(4-(difluoromethyl)-1-oxo-6-(((5-(spiro[3.3]heptan-2-yl)-1,3,4-oxadiazol-2-yl)amino)methyl)isoindolin-2-yl)piperidine-2,6-dione] | –
10 to 50 | ≥ 7.00 | COc1cc(CNC(=O)OCC2CC3(CCC3)C2)cc2c1CN(C1CCC(=O)NC1=O)C2=O (centres unmarked) [Compound 103, spiro[3.3]heptan-2-ylmethyl ((2-(2,6-dioxopiperidin-3-yl)-7-methoxy-3-oxoisoindolin-5-yl)methyl)carbamate] | –
10 to 50 | ≥ 7.00 | COc1c(CNC(=O)OCC2CC3(CCC3)C2)ccc2c1C(=O)N(C1CCC(=O)NC1=O)C2 (centres unmarked) [Compound 102, spiro[3.3]heptan-2-ylmethyl ((2-(2,6-dioxopiperidin-3-yl)-4-methoxy-3-oxoisoindolin-5-yl)methyl)carbamate] | –
≤ 10 | ≥ 7.00 | CC(COC(=O)NCc1ccc2c(c1)C(=O)N(C1CCC(=O)NC1=O)C2)C1CCC1 (centres unmarked) [Compound 58, 2-cyclobutylpropyl N-{[2-(2,6-dioxopiperidin-3-yl)-3-oxo-2,3-dihydro-1H-isoindol-5-yl]methyl}carbamate] | –
10 to 50 | ≥ 7.00 | CC1(COC(=O)NCc2ccc3c(c2)C(=O)N(C2CCC(=O)NC2=O)C3)CS(=O)(=O)C1 (centres unmarked) [Compound 81, (3-methyl-1,1-dioxo-1lambda6-thietan-3-yl)methyl N-{[2-(2,6-dioxopiperidin-3-yl)-3-oxo-2,3-dihydro-1H-isoindol-5-yl]methyl}carbamate] | –

From patent US20240317706A1, “COMPOUNDS THAT MEDIATE PROTEIN DEGRADATION AND METHODS OF USE THEREOF” (Monte Rosa Therapeutics, Inc., priority 2021, published 2024)
